Measurements reported in patent US8017612B2, “Piperazine compound and use thereof as a HCV polymerase inhibitor” (priority 2006, dated 2011).
pIC50: −log10 of the molar value. Counter-ions that a name gives are not always drawn.

Key:
[1] = molecular target: T1, HCV polymerase (NS5B) type 1b (Hepatitis C virus genotype 1b, UniProt P26663); experiment: Assay of enzyme (HCV polymerase) inhibitory activity, type 1b enzyme; assay type: biochemical, HCV BK strain (type 1b); conditions: HCV polymerase inhibitory activity IC50, 1b, type 1b enzyme
T1 construct: a region encoding NS5B (J Virol 1991 March, 65(3), 1105-13, 544 amino acids after deletion of 47 amino acids on the C-terminal); 6xHis (C); made in house; host or cells: Escherichia coli
How it was run: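 Polymerase activity was followed as radiolabelled UTP incorporation by E. coli-expressed, His-tagged NS5B of HCV type 1b lacking its last 47 residues. Conditions: 2 μM UTP, 50 μM other NTPs, Mg2+ buffer at pH 7.5, 25 °C for 60 min. Inhibition relative to compound-free reactions gave IC50.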

[2] = molecular target: T2, HCV polymerase (NS5B) type 1a (Hepatitis C virus genotype 1a, UniProt P26664); experiment: Assay of enzyme (HCV polymerase) inhibitory activity, type 1a enzyme; assay type: biochemical, HCV type 1a (cloned from the blood of patients); conditions: HCV polymerase inhibitory activity IC50, 1a, type 1a enzyme
T2 construct: made in house; host or cells: Escherichia coli (by the 'similar method' of the 1b enzyme)
How it was run: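 IC50 values derive from radioactivity of newly synthesized RNA with versus without test compound. The enzyme was C-terminally truncated type 1a NS5B, 1.5 μg/ml, run 60 min at 25° C with 3H-UTP-labelled nucleotides.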

Compound | pIC50 [1] | pIC50 [2]
CCC(F)(F)c1ccc(CNC(=O)[C@H]2CN(c3nc4nc(C)[nH]c(=O)c4s3)CCN2S(=O)(=O)c2ccc(OC(F)(F)F)cc2)cc1 [Example 911, (R)-4-(5-methyl-7-oxo-6,7-dihydro-thiazolo[4,5-d]pyrimidin-2-yl)-1-(4-trifluoromethoxy-benzenesulfonyl)-piperazine-2-carboxylic acid 4-(1,1-difluoro-propyl)-benzylamide] | > 7.00 | > 7.00
O=C(NCc1ccc(OC(F)(F)F)cc1)[C@H]1CN(c2nc3nc(Br)ncc3s2)CCN1S(=O)(=O)c1ccc(OC(F)(F)F)cc1 [Example 912, (R)-4-(5-bromo-thiazolo[4,5-d]pyrimidin-2-yl)-1-(4-trifluoromethoxy-benzenesulfonyl)-piperazine-2-carboxylic acid 4-trifluoromethoxy-benzylamide] | > 7.00 | > 7.00
CCCc1ccc(CNC(=O)[C@H]2CN(c3nc4nc(Cl)ncc4s3)CCN2S(=O)(=O)c2ccc(OC(F)(F)F)cc2)cc1 [Example 913, (R)-4-(5-chloro-thiazolo[4,5-d]pyrimidin-2-yl)-1-(4-trifluoromethoxy-benzenesulfonyl)-piperazine-2-carboxylic acid 4-propyl-benzylamide] | > 7.00 | > 7.00
CCCc1ccc(CNC(=O)[C@H]2CN(c3nc4ncncc4s3)CCN2S(=O)(=O)c2ccc(OC(F)(F)F)cc2)cc1 [Example 914, (R)-4-thiazolo[4,5-d]pyrimidin-2-yl-1-(4-trifluoromethoxy-benzenesulfonyl)-piperazine-2-carboxylic acid 4-propyl-benzylamide] | > 7.00 | > 7.00
NC(=O)c1nncc2sc(N3CCN(S(=O)(=O)c4ccc(OC(F)(F)F)cc4)[C@@H](C(=O)NCc4ccc(OC(F)(F)F)cc4)C3)nc12 [Example 915, 2-[(R)-4-(4-trifluoromethoxy-benzenesulfonyl)-3-(4-trifluoromethoxy-benzylcarbamoyl)-piperazin-1-yl]-thiazolo[4,5-d]pyridazine-4-carboxylic acid amide] | > 7.00 | > 7.00
CNC(=O)c1nncc2sc(N3CCN(S(=O)(=O)c4ccc(OC(F)(F)F)cc4)[C@@H](C(=O)NCc4ccc(OC(F)(F)F)cc4)C3)nc12 [Example 916, 2-[(R)-4-(4-trifluoromethoxy-benzenesulfonyl)-3-(4-trifluoromethoxy-benzylcarbamoyl)-piperazin-1-yl]-thiazolo[4,5-d]pyridazine-4-carboxylic acid methylamide] | > 7.00 | > 7.00
Cc1nncc2sc(N3CCN(S(=O)(=O)c4ccc(OC(F)(F)F)cc4)[C@@H](C(=O)NCc4ccc(OC(F)(F)F)cc4)C3)nc12 [Example 917, (R)-4-(4-methyl-thiazolo[4,5-d]pyridazin-2-yl)-1-(4-trifluoromethoxy-benzenesulfonyl)-piperazine-2-carboxylic acid 4-trifluoromethoxy-benzylamide] | > 7.00 | > 7.00
O=C(NCc1ccc(OC(F)(F)F)cc1)[C@H]1CN(c2nc3nc(Cl)ncc3s2)CCN1S(=O)(=O)c1ccc(OC(F)F)cc1 [Example 918, (R)-4-(5-chloro-thiazolo[4,5-d]pyrimidin-2-yl)-1-(4-difluoromethoxy-benzenesulfonyl)-piperazine-2-carboxylic acid 4-trifluoromethoxy-benzylamide] | > 7.00 | > 7.00
O=C(NCc1ccc(OC(F)(F)F)cc1)[C@H]1CN(c2nc3ncncc3s2)CCN1S(=O)(=O)c1ccc(OC(F)F)cc1 [Example 919, (R)-1-(4-difluoromethoxy-benzenesulfonyl)-4-thiazolo[4,5-d]pyrimidin-2-yl-piperazine-2-carboxylic acid 4-trifluoromethoxy-benzylamide] | > 7.00 | > 7.00
Cc1cc(=O)n2nc(N3CCN(S(=O)(=O)c4ccc(OC(F)(F)F)cc4)[C@@H](C(=O)NCc4ccc(OC(F)(F)F)cc4)C3)sc2n1 [Example 920, (R)-4-(7-methyl-5-oxo-5H-[1,3,4]thiadiazolo[3,2-a]pyrimidin-2-yl)-1-(4-trifluoromethoxy-benzenesulfonyl)-piperazine-2-carboxylic acid 4-trifluoromethoxy-benzylamide] | > 7.00 | 6.00 to 7.00
Cc1ncc2nc(N3CCN(S(=O)(=O)c4ccc(OC(F)(F)F)cc4)[C@@H](C(=O)NCc4ccc(OC(F)(F)F)cc4)C3)sc2n1 [Example 921, (R)-4-(5-methyl-thiazolo[5,4-d]pyrimidin-2-yl)-1-(4-trifluoromethoxy-benzenesulfonyl)-piperazine-2-carboxylic acid 4-trifluoromethoxy-benzylamide] | > 7.00 | 6.00 to 7.00
O=C(NCc1ccc(OC(F)(F)F)cc1)[C@H]1CN(c2nn3cnnc3s2)CCN1S(=O)(=O)c1ccc(OC(F)(F)F)cc1 [Example 922, (R)-4-[1,2,4]triazolo[3,4-b][1,3,4]thiadiazol-6-yl-1-(4-trifluoromethoxy-benzenesulfonyl)-piperazine-2-carboxylic acid 4-trifluoromethoxy-benzylamide] | > 7.00 | > 7.00
O=C1CCC(N2CCN(S(=O)(=O)c3ccc(OC(F)(F)F)cc3)[C@@H](C(=O)NCc3ccc(OC(F)(F)F)cc3)C2)CN1 (stereo partly drawn) [Example 923, (R)-4-(6-oxo-piperidin-3-yl)-1-(4-trifluoromethoxy-benzenesulfonyl)-piperazine-2-carboxylic acid 4-trifluoromethoxy-benzylamide] | 6.00 to 7.00 | 6.00 to 7.00
O=C(NCc1ccc(OC(F)(F)F)cc1)[C@H]1CN(c2ccc(=O)[nH]c2)CCN1S(=O)(=O)c1ccc(OC(F)(F)F)cc1 [Example 924, (R)-4-(6-oxo-1,6-dihydro-pyridin-3-yl)-1-(4-trifluoromethoxy-benzenesulfonyl)-piperazine-2-carboxylic acid 4-trifluoromethoxy-benzylamide hydrochloride] | 6.00 to 7.00 | 6.00 to 7.00
Cc1ncc2sc(N3CCN(S(=O)(=O)c4ccc(C(F)(F)F)cc4)[C@@H](C(=O)NCc4ccc(OC(F)(F)F)cc4)C3)nc2n1 [Example 925, (R)-4-(5-methyl-thiazolo[4,5-d]pyrimidin-2-yl)-1-(4-trifluoromethyl-benzenesulfonyl)-piperazine-2-carboxylic acid 4-trifluoromethoxy-benzylamide] | > 7.00 | > 7.00
CCC(F)(F)c1ccc(CNC(=O)[C@H]2CN(c3nc4nc(C)ncc4s3)CCN2S(=O)(=O)c2ccc(OC(F)(F)F)cc2)cc1 [Example 926, (R)-4-(5-methyl-thiazolo[4,5-d]pyrimidin-2-yl)-1-(4-trifluoromethoxy-benzenesulfonyl)-piperazine-2-carboxylic acid 4-(1,1-difluoro-propyl)-benzylamide] | > 7.00 | > 7.00
Cc1nc(Cl)c2sc(N3CCN(S(=O)(=O)c4ccc(C(F)(F)F)cc4)[C@@H](C(=O)NCc4ccc(OC(F)(F)F)cc4)C3)nc2n1 [Example 927, (R)-4-(7-chloro-5-methyl-thiazolo[4,5-d]pyrimidin-2-yl)-1-(4-trifluoromethyl-benzenesulfonyl)-piperazine-2-carboxylic acid 4-trifluoromethoxy-benzylamide] | > 7.00 | > 7.00
CCC(F)(F)c1ccc(CNC(=O)[C@H]2CN(c3nc4nc(C)nc(Cl)c4s3)CCN2S(=O)(=O)c2ccc(OC(F)(F)F)cc2)cc1 [Example 928, (R)-4-(7-chloro-5-methyl-thiazolo[4,5-d]pyrimidin-2-yl)-1-(4-trifluoromethoxy-benzenesulfonyl)-piperazine-2-carboxylic acid 4-(1,1-difluoro-propyl)-benzylamide] | > 7.00 | > 7.00
COc1ncc2sc(N3CCN(S(=O)(=O)c4ccc(OC(F)(F)F)cc4)[C@@H](C(=O)NCc4ccc(OC(F)(F)F)cc4)C3)nc2n1 [Example 929, (R)-4-(5-methoxy-thiazolo[4,5-d]pyrimidin-2-yl)-1-(4-trifluoromethoxy-benzenesulfonyl)-piperazine-2-carboxylic acid 4-trifluoromethoxy-benzylamide] | > 7.00 | > 7.00
CN(C)C(=O)c1nncc2sc(N3CCN(S(=O)(=O)c4ccc(OC(F)(F)F)cc4)[C@@H](C(=O)NCc4ccc(OC(F)(F)F)cc4)C3)nc12 [Example 930, 2-[(R)-4-(4-trifluoromethoxy-benzenesulfonyl)-3-(4-trifluoromethoxy-benzylcarbamoyl)-piperazin-1-yl]-thiazolo[4,5-d]pyridazine-4-carboxylic acid dimethylamide] | > 7.00 | > 7.00
O=C(NCc1ccc(OC(F)F)cc1)[C@H]1CN(c2nc3nc(Cl)ncc3s2)CCN1S(=O)(=O)c1ccc(OC(F)(F)F)cc1 [Example 931, (R)-4-(5-chloro-thiazolo[4,5-d]pyrimidin-2-yl)-1-(4-trifluoromethoxy-benzenesulfonyl)-piperazine-2-carboxylic acid 4-difluoromethoxy-benzylamide] | > 7.00 | > 7.00
O=C(NCc1ccc(OC(F)F)cc1)[C@H]1CN(c2nc3ncncc3s2)CCN1S(=O)(=O)c1ccc(OC(F)(F)F)cc1 [Example 932, (R)-4-thiazolo[4,5-d]pyrimidin-2-yl-1-(4-trifluoromethoxy-benzenesulfonyl)-piperazine-2-carboxylic acid 4-difluoromethoxy-benzylamide] | > 7.00 | > 7.00
